Measurements as given in ChEMBL document CHEMBL1201862, “PubChem BioAssay data set” (2004).
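Results reflect a 48-hour exposure of cells in 96-well plates to compound at five concentrations. GI50 = concentration required for 50% inhibition of growth.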 The source made the active and inactive calls. Cut-off read from the data, not from the text of the source: active = GI50 up to about 1.1 µM and inactive = higher.

Legend:
Assay in all cases: DTP human tumour cell line panel, 48 h
HCT-15 = test system: HCT-15
SNB-75 = test system: SNB-75
SF-268 = test system: SF-268
SK-MEL-2 = test system: SK-MEL-2
A549 = test system: A549
SNB-19 = test system: SNB-19
MCF7 = test system: MCF7
NCI-H460 = test system: NCI-H460
Malme-3M = test system: Malme-3M
HCC 2998 = test system: HCC 2998
NCI-H23 = test system: NCI-H23
COLO 205 = test system: COLO 205
PC-3 = test system: PC-3
U-251 = test system: U-251
CAKI-1 = test system: CAKI-1
RPMI-8226 = test system: RPMI-8226
NCI-H522 = test system: NCI-H522
HCT-116 = test system: HCT-116
SK-OV-3 = test system: SK-OV-3
SF-295 = test system: SF-295

Row | SMILES | GI50 (HCT-15) [µM] | GI50 (SNB-75) | GI50 (SF-268) | GI50 (SK-MEL-2) | GI50 (A549) | GI50 (SNB-19) | GI50 (MCF7) | GI50 (NCI-H460) | GI50 (Malme-3M) | GI50 (HCC 2998) | GI50 (NCI-H23) | GI50 (COLO 205) | GI50 (PC-3) | GI50 (U-251) | GI50 (CAKI-1) | GI50 (RPMI-8226) | GI50 (NCI-H522) | GI50 (HCT-116) | GI50 (SK-OV-3) | GI50 (SF-295)
1 | C=C1CC[C@@H](CCC2CCC3(OC2)O[C@]2(O)CC[C@@]3(C)OC2(C)C)C(C)(C)[C@H]1C/C=C1\CCOC1=O (some centres undefined) | 11.3 | 19.6 µM (inactive) | 27.2 µM (inactive) | 17.5 µM (inactive) | 8.89 µM (inactive) | 51.5 µM (inactive) | 1.76 µM (inactive) | 16.4 µM (inactive) | 16.7 µM (inactive) | 10.9 µM (inactive) | 0.444 µM (active) | 16.3 µM (inactive) | 4.61 µM (inactive) | 15.1 µM (inactive) | 35.1 µM (inactive) | 1.9 µM (inactive) | 5.32 µM (inactive) | 0.354 µM (active) | 20.4 µM (inactive) | –
2 | COc1cc(/C=C/C(=O)OCCc2ccccc2)ccc1O | 21.7 | 15.2 µM (inactive) | 20.5 µM (inactive) | 21.6 µM (inactive) | 18.4 µM (inactive) | 17.9 µM (inactive) | 20.8 µM (inactive) | 18.6 µM (inactive) | 16.4 µM (inactive) | 21 µM (inactive) | 17.2 µM (inactive) | 19.4 µM (inactive) | 14.2 µM (inactive) | 16 µM (inactive) | 15.9 µM (inactive) | 20.5 µM (inactive) | 5.4 µM (inactive) | 17.7 µM (inactive) | 16.1 µM (inactive) | 17.3 µM (inactive)
3 | NCCCCC(N)C(=O)N1CCN(c2nc(N3CCCC3)c3nc(Cl)c(NCc4ccccc4)nc3n2)CC1 (centres undefined) | 17.7 | 16.6 µM (inactive) | 20 µM (inactive) | 19 µM (inactive) | 18.5 µM (inactive) | 17.1 µM (inactive) | 19.6 µM (inactive) | 17.5 µM (inactive) | 23 µM (inactive) | 19.1 µM (inactive) | 19.4 µM (inactive) | 17.4 µM (inactive) | 17.8 µM (inactive) | 18.9 µM (inactive) | 31 µM (inactive) | 17.8 µM (inactive) | 19.3 µM (inactive) | 16.6 µM (inactive) | 20.2 µM (inactive) | 18.5 µM (inactive)
4 | COc1cc2c(c3c1c(=O)c1ccccc1n3C)C=CC1(CCCCC1)O2 | 3.08 | 1.29 µM (inactive) | 4.48 µM (inactive) | 3.35 µM (inactive) | 0.446 µM (active) | > 7.18 µM (inactive) | 2.31 µM (inactive) | 3.82 µM (inactive) | 3.43 µM (inactive) | 4.59 µM (inactive) | > 7.67 µM (inactive) | 4.34 µM (inactive) | 3.78 µM (inactive) | 4.03 µM (inactive) | 0.764 µM (active) | 0.455 µM (active) | 3.96 µM (inactive) | 2.88 µM (inactive) | 5.53 µM (inactive) | 1.44 µM (inactive)
5 | O=C1CNCCCN2CCN(CCCNCC(=O)Nc3ccc(cc3)S(=O)(=O)c3ccc(cc3)NC(=O)CNCCCN3CCN(CCCNCC(=O)Nc4ccc(cc4)S(=O)(=O)c4ccc(cc4)N1)CC3)CC2 | 21 | 37.2 µM (inactive) | 22.9 µM (inactive) | 35.1 µM (inactive) | 57.3 µM (inactive) | 52.2 µM (inactive) | 46.1 µM (inactive) | 10.4 µM (inactive) | 11.9 µM (inactive) | 21.2 µM (inactive) | 30.3 µM (inactive) | 34.8 µM (inactive) | 42.3 µM (inactive) | 24.5 µM (inactive) | 30.1 µM (inactive) | 29.2 µM (inactive) | 10.7 µM (inactive) | 21.5 µM (inactive) | > 100 µM (inactive) | 20.5 µM (inactive)
